# Measured values: ChEMBL document CHEMBL1201862, “PubChem BioAssay data set” (2004)
#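 Results reflect a 48-hour exposure of cells in 96-well plates to compound at five concentrations. GI50: concentration for 50% inhibition of growth.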 Active and inactive are the calls of the source. No stated cut-off is given here; in the data, active = GI50 up to about 1.1 µM and inactive = higher.
# Key:
# Test in all cases: NCI tumour cell line growth inhibition, 48 h
# IGROV-1 = system: IGROV-1
# CCRF-CEM = system: CCRF-CEM
# K562 = system: K562
# UACC-257 = system: UACC-257
# MDA-MB-231 = system: MDA-MB-231
# RXF 393 = system: RXF 393
# RPMI-8226 = system: RPMI-8226
# OVCAR-4 = system: OVCAR-4
# MDA-MB-435 = system: MDA-MB-435
# ACHN = system: ACHN
# SNB-19 = system: SNB-19
# A549 = system: A549
# HCT-15 = system: HCT-15
# 786-0 = system: 786-0
# SR = system: SR
# Malme-3M = system: Malme-3M
# NCI-H23 = system: NCI-H23
# NCI/ADR-RES = system: NCI/ADR-RES
# SW-620 = system: SW-620
# UACC-62 = system: UACC-62
# SF-295 = system: SF-295
# DU-145 = system: DU-145
# SNB-75 = system: SNB-75
# HT-29 = system: HT-29
# LOX IMVI = system: LOX IMVI
# M14 = system: M14
# HCT-116 = system: HCT-116
# BT-549 = system: BT-549
# HOP-62 = system: HOP-62
# CAKI-1 = system: CAKI-1
# SK-MEL-28 = system: SK-MEL-28
# SF-539 = system: SF-539
# OVCAR-8 = system: OVCAR-8
# MCF7 = system: MCF7
# U-251 = system: U-251
# NCI-H226 = system: NCI-H226
# Hs-578T = system: Hs-578T
# HL-60 = system: HL-60
# NCI-H460 = system: NCI-H460
# COLO 205 = system: COLO 205
# A498 = system: A498
# SK-OV-3 = system: SK-OV-3
# SK-MEL-5 = system: SK-MEL-5
# EKVX = system: EKVX
# KM12 = system: KM12
# HOP-92 = system: HOP-92
# SK-MEL-2 = system: SK-MEL-2
# HCC 2998 = system: HCC 2998
# OVCAR-3 = system: OVCAR-3
# TK-10 = system: TK-10
# UO-31 = system: UO-31
# MOLT-4 = system: MOLT-4
# NCI-H522 = system: NCI-H522
# SF-268 = system: SF-268
compound,measurement,setting,value
Cc1cnc2[nH]c(-c3cccc(Cl)c3)cc(=O)c2c1,GI50,IGROV-1,292 nM (active)
same,GI50,CCRF-CEM,42.5 nM (active)
same,GI50,K562,< 15.1 nM (active)
same,GI50,UACC-257,1.05 µM (active)
same,GI50,MDA-MB-231,56.9 nM (active)
same,GI50,RXF 393,36.7 nM (active)
same,GI50,RPMI-8226,< 20.6 nM (active)
same,GI50,OVCAR-4,> 100 µM (inactive)
same,GI50,MDA-MB-435,< 10 nM (active)
same,GI50,ACHN,507 nM (active)
same,GI50,SNB-19,76.9 nM (active)
same,GI50,A549,67.6 nM (active)
same,GI50,HCT-15,117 nM
same,GI50,786-0,54.7 nM (active)
same,GI50,SR,34.5 nM (active)
same,GI50,Malme-3M,48 nM (active)
same,GI50,NCI-H23,375 nM (active)
same,GI50,NCI/ADR-RES,54 nM (active)
same,GI50,SW-620,11.9 nM (active)
same,GI50,UACC-62,22.4 nM (active)
same,GI50,SF-295,16.9 nM (active)
same,GI50,DU-145,154 nM (active)
same,GI50,SNB-75,37.8 nM (active)
same,GI50,HT-29,39.2 nM (active)
same,GI50,LOX IMVI,43.8 nM (active)
same,GI50,M14,40.6 nM (active)
same,GI50,HCT-116,36.1 nM (active)
same,GI50,BT-549,2.54 µM (inactive)
same,GI50,HOP-62,28.2 nM (active)
same,GI50,CAKI-1,49.5 nM (active)
same,GI50,SK-MEL-28,315 nM (active)
same,GI50,SF-539,19.4 nM (active)
same,GI50,OVCAR-8,159 nM (active)
same,GI50,MCF7,381 nM (active)
same,GI50,U-251,48.4 nM (active)
same,GI50,NCI-H226,70.8 nM (active)
same,GI50,Hs-578T,26.6 nM (active)
same,GI50,HL-60,< 17.6 nM (active)
same,GI50,NCI-H460,37.8 nM (active)
same,GI50,COLO 205,80.7 nM (active)
same,GI50,A498,55.6 nM (active)
same,GI50,SK-OV-3,50.8 nM (active)
same,GI50,SK-MEL-5,46.1 nM (active)
same,GI50,EKVX,> 50.1 µM (inactive)
same,GI50,KM12,102 nM (active)
same,GI50,HOP-92,> 100 µM (inactive)
same,GI50,SK-MEL-2,88.9 nM (active)
same,GI50,HCC 2998,101 nM (active)
same,GI50,OVCAR-3,21.6 nM (active)
same,GI50,TK-10,22.8 µM (inactive)
same,GI50,UO-31,1.7 µM (inactive)
same,GI50,MOLT-4,33.8 nM (active)
same,GI50,NCI-H522,29.4 nM (active)
same,GI50,SF-268,79.6 nM (active)
